Experimental data: PMC7316994, “In Vitro Pharmacological Profile of a New Small Molecule Bradykinin B2 Receptor Antagonist” (Frontiers in Pharmacology, 2020)
Like-named read-outs stand apart in the source and are kept apart here.

Experiments:
Neuropeptide Y1 = target: T1, Neuropeptide Y1 (Homo sapiens, UniProt P25929); experiment: radioligand binding (Table S2); details: [125I] Peptide YY, SK-N-MC cells (endogenous)
T1 construct: (endogenous); host or cells: SK-N-MC cells

[1] = tested on: Sodium Na+ channel (site 2); type: binding; details: [3H] Batrachotoxinin, Rat cerebral cortex
PDGFRβ kinase = target: T2, PDGFRβ kinase (Homo sapiens, UniProt P09619); experiment: enzyme assay (Table S2); type: biochemical; details: ATP + Ulight-PolyGAT (25 nM), LANCE
T2 construct: host or cells: insect cells

Adenosine A2B = Adenosine A2B (Homo sapiens, UniProt P29275); experiment: radioligand binding (Table S2); details: read-out: % Inhibition @ 10 µM
Vasopressin V1B = target: T3, Vasopressin V1B (Homo sapiens, UniProt P47901); experiment: functional assay, intracellular [Ca2+], RBL cells (Table S2); type: cell-based; details: read-out: % inhibition of reference agonist response @ 10 µM (antagonist effect), Vasopressin (5 nM)
T3 construct: expressed in transfected cells; host or cells: RBL cells

[2] = target: T4, Corticotropin-releasing hormone receptor CRF1 (Homo sapiens, UniProt P34998); experiment: radioligand binding (Table S2); details: [125I] Sauvagine, Human recombinant CHO cells
T4 construct: host or cells: CHO cells

Orexin OX1 = target: T5, Orexin OX1 (Homo sapiens, UniProt O43613); experiment: radioligand binding (Table S2); details: [125I] Orexin A, Human recombinant CHO cells
T5 construct: host or cells: CHO cells

PDE5 (non-selective) = PDE5 (non-selective) (Homo sapiens, UniProt O76074); experiment: enzyme assay (Table S2); type: biochemical; details: Human platelets, [3H]cGMP + cGMP (1 µM)
Neurokinin NK2 = target: T6, Neurokinin NK2 (Homo sapiens, UniProt P21452); experiment: radioligand binding (Table S2); details: [125I] NKA, Human recombinant CHO cells
T6 construct: host or cells: CHO cells
T6 sequence (P21452 1-398): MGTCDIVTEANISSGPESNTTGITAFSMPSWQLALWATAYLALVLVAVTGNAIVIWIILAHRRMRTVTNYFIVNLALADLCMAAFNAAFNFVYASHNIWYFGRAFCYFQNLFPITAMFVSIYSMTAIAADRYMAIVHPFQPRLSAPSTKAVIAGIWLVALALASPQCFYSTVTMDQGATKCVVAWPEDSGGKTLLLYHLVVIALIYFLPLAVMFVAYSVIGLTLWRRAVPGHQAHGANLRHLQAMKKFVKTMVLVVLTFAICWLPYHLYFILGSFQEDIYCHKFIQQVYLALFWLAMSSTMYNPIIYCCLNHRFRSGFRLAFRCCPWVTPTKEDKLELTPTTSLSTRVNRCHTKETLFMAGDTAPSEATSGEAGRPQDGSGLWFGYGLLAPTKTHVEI

Serotonin 5-HT2C = target: T7, Serotonin 5-HT2C (Homo sapiens, UniProt P28335); experiment: radioligand binding (Table S2); details: [3H] Mesulergine, Human recombinant HEK-293 cells
T7 construct: host or cells: HEK-293 cells

PKCα = PKCα (Homo sapiens, UniProt P17252); experiment: enzyme assay (Table S2); type: biochemical; details: HTRF
Dopamine D2S = target: T8, Dopamine D2S (Homo sapiens, UniProt P14416); experiment: radioligand binding (Table S2); details: [3H] 7-OH-DPAT, Human recombinant HEK-293 cells
T8 construct: host or cells: HEK-293 cells

Adrenergic α2A = Adrenergic α2A (Homo sapiens, UniProt P08913); experiment: radioligand binding (Table S2); details: read-out: % Inhibition @ 10 µM
Galanin GAL1 = Galanin GAL1 (Homo sapiens, UniProt P47211); experiment: radioligand binding (Table S2); details: [125I] Galanin, Human recombinant HEK-293 cells
Muscarinic M5 = Muscarinic M5 (Homo sapiens, UniProt P08912); experiment: radioligand binding (Table S2); details: read-out: % Inhibition @ 10 µM
Oxytocin = target: T9, Oxytocin (Homo sapiens, UniProt P30559); experiment: radioligand binding (Table S2); details: [3H] Oxytocin, Human recombinant Chem-1 cells
T9 construct: host or cells: Chem-1 cells

PDE3A = PDE3A (Homo sapiens, UniProt Q14432); experiment: enzyme assay (Table S2); type: biochemical; details: [3H]cAMP + cAMP (0.5 µM), Scintillation counting
Somatostatin sst1 = Somatostatin sst1 (Homo sapiens, UniProt P30872); experiment: radioligand binding (Table S2); details: [125I] Tyr11-Somatostatin 14, Human recombinant CHO-S cells
TP (TXA2/PGH2) = target: T10, TP (TXA2/PGH2) (Homo sapiens, UniProt P21731); experiment: functional assay, intracellular [Ca2+], HEK-293 cells (Table S2); type: cell-based; details: for inhibition at 10 µM: HEK293, read-out: % inhibition of reference agonist response @ 10 µM (antagonist effect), 10 µM, U 44069 (10 nM)
T10 construct: expressed in transfected cells; host or cells: HEK-293 cells
T10 sequence (P21731 1-343): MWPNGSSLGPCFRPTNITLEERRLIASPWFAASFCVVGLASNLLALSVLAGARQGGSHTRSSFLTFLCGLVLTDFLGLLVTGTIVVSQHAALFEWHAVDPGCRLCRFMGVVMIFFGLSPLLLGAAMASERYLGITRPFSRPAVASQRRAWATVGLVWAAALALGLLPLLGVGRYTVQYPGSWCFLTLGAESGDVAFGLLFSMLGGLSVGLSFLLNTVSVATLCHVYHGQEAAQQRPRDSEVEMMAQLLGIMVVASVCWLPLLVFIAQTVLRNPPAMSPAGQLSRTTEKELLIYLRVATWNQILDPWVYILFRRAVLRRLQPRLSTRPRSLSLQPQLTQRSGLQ

T4 sequence (P34998 24-415): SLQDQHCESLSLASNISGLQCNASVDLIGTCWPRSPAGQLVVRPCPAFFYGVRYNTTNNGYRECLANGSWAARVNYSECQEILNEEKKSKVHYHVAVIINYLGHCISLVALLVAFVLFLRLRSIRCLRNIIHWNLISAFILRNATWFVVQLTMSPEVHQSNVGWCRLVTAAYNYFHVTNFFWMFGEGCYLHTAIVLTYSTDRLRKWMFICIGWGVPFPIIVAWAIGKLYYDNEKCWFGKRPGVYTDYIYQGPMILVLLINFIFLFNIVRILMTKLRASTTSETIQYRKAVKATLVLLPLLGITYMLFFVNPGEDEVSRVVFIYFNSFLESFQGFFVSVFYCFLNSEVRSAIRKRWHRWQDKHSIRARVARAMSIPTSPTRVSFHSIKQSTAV
Chain of Adenosine A2B (P29275 whole entry): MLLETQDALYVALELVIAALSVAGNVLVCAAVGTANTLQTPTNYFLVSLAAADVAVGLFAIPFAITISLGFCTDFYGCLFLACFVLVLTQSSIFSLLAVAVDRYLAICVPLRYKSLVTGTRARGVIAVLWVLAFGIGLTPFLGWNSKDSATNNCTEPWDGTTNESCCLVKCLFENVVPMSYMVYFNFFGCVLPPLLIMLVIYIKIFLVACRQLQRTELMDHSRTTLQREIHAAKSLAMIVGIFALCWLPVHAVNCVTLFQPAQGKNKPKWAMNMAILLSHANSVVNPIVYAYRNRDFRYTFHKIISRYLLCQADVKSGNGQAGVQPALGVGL
Chain of PDE3A (Q14432 whole entry): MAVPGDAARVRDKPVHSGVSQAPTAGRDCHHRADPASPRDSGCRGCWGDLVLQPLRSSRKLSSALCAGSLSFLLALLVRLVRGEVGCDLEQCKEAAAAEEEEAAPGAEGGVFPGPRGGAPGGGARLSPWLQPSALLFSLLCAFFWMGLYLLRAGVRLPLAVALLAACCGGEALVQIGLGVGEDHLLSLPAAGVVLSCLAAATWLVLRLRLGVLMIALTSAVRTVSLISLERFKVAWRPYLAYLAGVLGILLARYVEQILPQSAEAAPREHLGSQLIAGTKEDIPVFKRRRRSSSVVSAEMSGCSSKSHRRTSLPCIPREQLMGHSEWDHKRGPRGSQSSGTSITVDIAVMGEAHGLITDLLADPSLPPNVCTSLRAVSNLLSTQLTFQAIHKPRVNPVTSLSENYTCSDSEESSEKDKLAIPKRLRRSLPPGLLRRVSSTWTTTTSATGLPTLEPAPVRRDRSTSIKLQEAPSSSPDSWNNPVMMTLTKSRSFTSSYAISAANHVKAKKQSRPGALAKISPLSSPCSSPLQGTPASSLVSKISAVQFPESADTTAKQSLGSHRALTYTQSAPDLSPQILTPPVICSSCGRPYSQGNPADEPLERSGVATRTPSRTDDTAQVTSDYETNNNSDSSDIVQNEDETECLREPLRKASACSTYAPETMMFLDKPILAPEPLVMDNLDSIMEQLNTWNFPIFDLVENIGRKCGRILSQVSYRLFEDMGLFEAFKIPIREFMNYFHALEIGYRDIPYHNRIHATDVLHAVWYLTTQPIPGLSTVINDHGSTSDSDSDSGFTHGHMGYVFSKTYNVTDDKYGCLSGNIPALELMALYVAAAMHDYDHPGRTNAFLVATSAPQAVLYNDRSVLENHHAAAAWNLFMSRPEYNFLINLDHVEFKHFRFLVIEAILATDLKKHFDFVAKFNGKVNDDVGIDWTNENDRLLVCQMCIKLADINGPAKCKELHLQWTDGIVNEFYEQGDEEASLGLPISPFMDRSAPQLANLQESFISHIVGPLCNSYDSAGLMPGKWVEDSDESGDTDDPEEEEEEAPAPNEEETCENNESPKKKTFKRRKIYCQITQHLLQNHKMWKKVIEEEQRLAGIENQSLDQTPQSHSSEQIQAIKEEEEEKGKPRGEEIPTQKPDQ
T1 sequence (P25929 whole entry): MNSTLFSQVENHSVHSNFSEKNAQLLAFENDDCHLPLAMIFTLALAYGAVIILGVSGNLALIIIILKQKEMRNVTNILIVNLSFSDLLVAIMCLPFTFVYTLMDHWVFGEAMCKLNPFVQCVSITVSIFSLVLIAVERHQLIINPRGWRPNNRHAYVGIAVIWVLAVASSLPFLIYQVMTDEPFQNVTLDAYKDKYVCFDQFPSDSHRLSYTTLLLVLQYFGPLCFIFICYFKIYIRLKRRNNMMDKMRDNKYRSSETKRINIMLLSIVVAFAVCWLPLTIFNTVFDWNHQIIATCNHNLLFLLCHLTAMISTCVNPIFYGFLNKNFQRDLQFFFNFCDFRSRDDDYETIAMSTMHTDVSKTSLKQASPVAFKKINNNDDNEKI
T2 sequence (P09619 33-1106): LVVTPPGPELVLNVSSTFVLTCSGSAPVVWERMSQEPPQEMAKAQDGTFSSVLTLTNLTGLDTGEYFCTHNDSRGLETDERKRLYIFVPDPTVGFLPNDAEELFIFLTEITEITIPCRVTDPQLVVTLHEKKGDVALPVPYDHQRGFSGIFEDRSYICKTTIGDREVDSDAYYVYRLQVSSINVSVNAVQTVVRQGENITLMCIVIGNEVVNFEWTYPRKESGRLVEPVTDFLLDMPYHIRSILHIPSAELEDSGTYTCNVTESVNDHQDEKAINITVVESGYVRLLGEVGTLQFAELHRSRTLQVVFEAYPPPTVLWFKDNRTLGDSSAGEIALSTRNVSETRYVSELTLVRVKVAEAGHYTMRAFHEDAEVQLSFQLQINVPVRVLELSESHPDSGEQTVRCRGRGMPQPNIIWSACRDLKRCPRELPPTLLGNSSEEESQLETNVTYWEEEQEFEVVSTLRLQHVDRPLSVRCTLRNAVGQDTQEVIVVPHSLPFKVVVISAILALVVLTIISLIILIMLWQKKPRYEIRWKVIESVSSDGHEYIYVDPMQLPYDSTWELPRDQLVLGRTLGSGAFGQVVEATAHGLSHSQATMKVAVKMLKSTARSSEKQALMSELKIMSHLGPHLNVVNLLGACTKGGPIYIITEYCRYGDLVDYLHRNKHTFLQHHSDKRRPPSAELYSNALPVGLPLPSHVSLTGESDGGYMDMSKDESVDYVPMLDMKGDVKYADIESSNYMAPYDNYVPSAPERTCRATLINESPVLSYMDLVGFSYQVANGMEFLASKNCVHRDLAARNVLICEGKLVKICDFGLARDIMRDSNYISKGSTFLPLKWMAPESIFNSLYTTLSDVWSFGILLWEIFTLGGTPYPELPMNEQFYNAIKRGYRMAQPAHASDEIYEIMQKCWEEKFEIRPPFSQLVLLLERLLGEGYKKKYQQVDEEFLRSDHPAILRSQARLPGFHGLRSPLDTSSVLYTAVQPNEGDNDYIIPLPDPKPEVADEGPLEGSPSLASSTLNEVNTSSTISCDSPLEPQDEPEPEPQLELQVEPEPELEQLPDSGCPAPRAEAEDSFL
Chain of Somatostatin sst1 (P30872 whole entry): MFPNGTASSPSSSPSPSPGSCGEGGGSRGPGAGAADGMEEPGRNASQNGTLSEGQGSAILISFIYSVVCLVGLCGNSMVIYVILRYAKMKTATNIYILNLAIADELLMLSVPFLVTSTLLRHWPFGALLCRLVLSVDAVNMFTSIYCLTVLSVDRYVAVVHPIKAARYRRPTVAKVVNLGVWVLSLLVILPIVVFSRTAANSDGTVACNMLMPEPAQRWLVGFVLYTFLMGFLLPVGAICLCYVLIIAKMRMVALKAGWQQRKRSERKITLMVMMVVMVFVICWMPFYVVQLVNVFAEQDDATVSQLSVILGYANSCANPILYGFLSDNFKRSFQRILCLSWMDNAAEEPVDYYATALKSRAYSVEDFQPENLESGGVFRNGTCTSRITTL
T9 sequence (P30559 whole entry): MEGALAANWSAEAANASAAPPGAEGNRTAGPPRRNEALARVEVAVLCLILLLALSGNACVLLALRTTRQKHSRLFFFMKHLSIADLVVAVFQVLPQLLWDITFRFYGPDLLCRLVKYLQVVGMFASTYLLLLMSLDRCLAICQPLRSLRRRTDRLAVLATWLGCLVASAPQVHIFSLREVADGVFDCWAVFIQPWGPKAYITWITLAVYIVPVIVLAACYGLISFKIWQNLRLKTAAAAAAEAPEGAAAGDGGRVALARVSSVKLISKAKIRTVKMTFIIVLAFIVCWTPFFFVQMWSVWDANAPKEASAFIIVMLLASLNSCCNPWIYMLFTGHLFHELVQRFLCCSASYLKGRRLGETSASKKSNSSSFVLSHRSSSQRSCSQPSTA

In the case of `Cc1cc(-c2ncnn2C)c2cccc(OCc3c(Cl)cc(F)cc3[C@H](C)NC(=O)COC(F)F)c2n1` [Compound 3, (S)-N-(1-(3-chloro-5-fluoro-2-((2-methyl-4-(1-methyl-1H-1,2,4-triazol-5-yl)quinolin-8-yloxy)methyl)phenyl)ethyl)-2-(difluoromethoxy)acetamide], the inhibition at 10 µM (Neuropeptide Y1) is reported as -2.6%, the “% Inhibition @ 10 µM” value [1] is reported as -3.4% and the inhibition at 10 µM (PDGFRβ kinase) is reported as -1%. The inhibition at 10 µM (Adenosine A2B) was 3.6%, the inhibition at 10 µM (Vasopressin V1B) was 7.7% and the “% Inhibition @ 10 µM” value [2] was 74%. It also gave an inhibition at 10 µM [2] of 73.5%, an inhibition at 10 µM (Orexin OX1) of 7.1% and an inhibition at 10 µM (PDE5 (non-selective)) of 15.5%. The “% Inhibition @ 10 µM” value (Neurokinin NK2) was 21%, the inhibition at 10 µM (Neurokinin NK2) was 21.2% and the inhibition at 10 µM (Serotonin 5-HT2C) was 5%. The inhibition at 10 µM (PKCα) was 1.4%, the inhibition at 10 µM (Dopamine D2S) was -2.7% and the inhibition at 10 µM (Adrenergic α2A) was -1.7%. It also gave an inhibition at 10 µM (Galanin GAL1) of 22.4%, an inhibition at 10 µM (Muscarinic M5) of 5.1% and an inhibition at 10 µM (Oxytocin) of 5%. For the same compound, the inhibition at 10 µM (PDE3A) was 15.9%, the inhibition at 10 µM (Somatostatin sst1) was -2% and the IC50 (TP (TXA2/PGH2)) was 3.6 µM. The Kb (TP (TXA2/PGH2)) was 0.51 µM, the “% of reference agonist response @ 10 µM (agonist effect)” value (TP (TXA2/PGH2); 10 µM, reference U 44069 (0.3 µM)) was -2.8% and the inhibition at 10 µM (TP (TXA2/PGH2); first entry of Table S2, single concentration) was 62.3%. For the same compound, the inhibition at 10 µM (TP (TXA2/PGH2); second entry of Table S2, with IC50 and KB) was 55.1%.
